# Results as given in US8563714B2, “Bridged spiro [2.4] heptane derivatives as ALX receptor and/or FPRL2 agonists” (Actelion Pharmaceuticals Ltd., priority 2009, dated 2013).
# What was measured:
# human ALX receptor = target: T1, human ALX receptor (Homo sapiens, UniProt P25090); experiment: Intracellular calcium measurements (FLIPR), agonistic activity in HEK293-hALXR-Gα16 cells; format: cell-based; details: Fluo-4 calcium FLIPR, normalized to WKYMVm 10 nM
# T1 construct: expressed in transfected cells; host or cells: HEK293 (HEK293-hALXR-Gα16)
# T1 sequence (P25090 1-351): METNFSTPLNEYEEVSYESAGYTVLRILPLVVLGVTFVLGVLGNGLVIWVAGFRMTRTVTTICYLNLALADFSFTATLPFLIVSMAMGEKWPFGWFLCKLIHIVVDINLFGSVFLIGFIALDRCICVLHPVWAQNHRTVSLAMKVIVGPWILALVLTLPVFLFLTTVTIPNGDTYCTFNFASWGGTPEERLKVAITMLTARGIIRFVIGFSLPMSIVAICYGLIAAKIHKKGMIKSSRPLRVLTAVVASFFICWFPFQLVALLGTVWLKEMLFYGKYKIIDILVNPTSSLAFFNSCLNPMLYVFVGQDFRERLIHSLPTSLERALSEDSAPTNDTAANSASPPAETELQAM
# Procedure, shortened: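 HEK293 cells expressing hALXR and Gα16 were loaded with 1 μM Fluo-4 AM and 20 mM HEPES for 60 min at 37°C, then exposed to serially diluted compound. FLIPR fluorescence was read at ex 488/em 540 nm. Baseline-subtracted peak responses were normalized to 10 nM WKYMVm.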
# human FPRL2 = target: T2, human FPRL2 (Homo sapiens, UniProt P25089); experiment: Intracellular calcium measurements (FLIPR), agonistic activity in HEK293-hFPRL2-Gα16 cells; format: cell-based; details: Fluo-4 calcium FLIPR, normalized to GLY14-Humanin 100 nM
# T2 construct: expressed in transfected cells; host or cells: HEK293 (HEK293-hFPRL2-Gα16)
# T2 sequence (P25089 1-353): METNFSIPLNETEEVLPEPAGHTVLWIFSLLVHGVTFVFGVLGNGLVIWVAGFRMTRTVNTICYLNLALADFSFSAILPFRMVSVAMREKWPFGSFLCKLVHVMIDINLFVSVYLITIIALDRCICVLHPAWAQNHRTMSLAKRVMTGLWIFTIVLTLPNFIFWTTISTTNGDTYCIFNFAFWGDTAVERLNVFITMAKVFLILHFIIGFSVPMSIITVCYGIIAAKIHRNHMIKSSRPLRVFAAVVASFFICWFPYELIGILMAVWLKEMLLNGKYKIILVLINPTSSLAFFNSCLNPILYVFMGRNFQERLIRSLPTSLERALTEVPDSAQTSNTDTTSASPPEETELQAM
# Procedure, shortened: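 Peak values after baseline subtraction are expressed relative to 100 nM Gly14-Humanin; compounds diluted in assay buffer from 10 mM DMSO stocks.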
EC50 (human ALX receptor) [nM],EC50 (human FPRL2) [nM],SMILES
28,647,"CC(=O)c1ccc(CNC(=O)[C@H]2[C@H](C(=O)NCCCCN3CCCC3)[C@H]3C=C[C@@H]2C32CC2)o1 [Example 195, (5R)—N^5-(5-Acetyl-furan-2-yl-methyl)-(6R)—N^6-(4-pyrrolidin-1-yl-butyl)-(4S,7R)-[4,7-ethenylene-spiro[2.4]heptane]-5,6-dicarboxamide]"
21,1080,"CC(=O)c1ccc(CNC(=O)C2C(C(=O)NCCCCN3CCCC3)C3CCC2C32CC2)o1 [Example 196, (5R)—N^5-(5-Acetyl-furan-2-yl-methyl)-(6R)—N^6-(4-pyrrolidin-1-yl-butyl)-(4S,7R)-[4,7-ethylene-spiro[2.4]heptane]-5,6-dicarboxamide]"
2.3,15,"CCN1CCN(CCCCNC(=O)[C@H]2[C@H](C(=O)Nc3ccc(Br)cc3)[C@@H]3C=C[C@H]2C32CC2)CC1 [Example 208, (5R)—N^5-(4-Bromophenyl)-(6R)—N^6-(4-(4-ethyl-piperazin-1-yl)-butyl)-(4S,7R)-[4,7-ethenylene-spiro[2.4]heptane]-5,6-dicarboxamide]"
0.07,58,"O=C(NCCCCN1CCCCC1)[C@H]1[C@H](C(=O)Nc2ccc(Br)cc2)[C@@H]2C=C[C@H]1C21CC1 [Example 209, (5R)—N^5-(4-Bromophenyl)-(6R)—N^6-(4-piperidino-butyl)-(4S,7R)-[4,7-ethenylene-spiro[2.4]heptane]-5,6-dicarboxamide]"
0.4,200,"O=C(NCCCCN1CCC1)[C@H]1[C@H](C(=O)Nc2ccc(Br)cc2)[C@@H]2C=C[C@H]1C21CC1 [Example 210, (5R)—N^5-(4-Bromophenyl)-(6R)—N^6-(4-(azetidin-1-yl)butyl)-(4S,7R)-[4,7-ethenylene-spiro[2.4]heptane]-5,6-dicarboxamide]"
0.53,423,"O=C(NCCCCN1CCOCC1)[C@H]1[C@H](C(=O)Nc2ccc(Br)cc2)[C@@H]2C=C[C@H]1C21CC1 [Example 211, (5R)—N^5-(4-Bromophenyl)-(6R)—N^6-(4-morpholino-butyl)-(4S,7R)-[4,7-ethenylene-spiro[2.4]heptane]-5,6-dicarboxamide]"
0.89,12,"CN1CCCN(CCCCNC(=O)[C@H]2[C@H](C(=O)Nc3ccc(Br)cc3)[C@@H]3C=C[C@H]2C32CC2)CC1 [Example 212, (5R)—N^5-(4-Bromophenyl)-(6R)—N^6-(4-(4-methyl-1,4-diazepan-1-yl)butyl)-(4S,7R)-[4,7-ethenylene-spiro[2.4]heptane]-5,6-dicarboxamide]"
4.1,16,"CN1CCN(CCCCNC(=O)[C@H]2[C@H](C(=O)Nc3ccc(Br)cc3)[C@@H]3C=C[C@H]2C32CC2)CC1 [Example 213, (5R)—N^5-(4-Bromophenyl)-(6R)—N^6-(4-(4-methyl-piperazin-1-yl)butyl)-(4S,7R)-[4,7-ethenylene-spiro[2.4]heptane]-5,6-dicarboxamide]"
6.1,338,"O=C(NCCCC(=O)N1CCCC1)[C@H]1[C@H](C(=O)Nc2ccc(Br)cc2)[C@@H]2C=C[C@H]1C21CC1 [Example 214, (5R)—N^5-(4-Bromophenyl)-(6R)—N^6-(4-pyrrolidino-4-oxobutyl)-(4S,7R)-[4,7-ethenylene-spiro[2.4]heptane]-5,6-dicarboxamide]"
0.72,95,"O=C(NCCOCCN1CCCC1)[C@H]1[C@H](C(=O)Nc2ccc(Br)cc2)[C@@H]2C=C[C@H]1C21CC1 [Example 215, (5R)—N^5-(4-Bromophenyl)-(6R)—N^6-(2-(2-(pyrrolidin-1-yl)ethoxy)ethyl)-(4S,7R)-[4,7-ethenylene-spiro[2.4]heptane]-5,6-dicarboxamide]"
2.7,297,"O=C(N[C@@H]1CC[C@@H](CN2CCCC2)OC1)[C@H]1[C@H](C(=O)Nc2ccc(Br)cc2)[C@@H]2C=C[C@H]1C21CC1 [Example 216, (5R)—N^5-(4-Bromophenyl)-(6R)—N^6-((3R,6S)-6-(pyrrolidin-1-ylmethyl)tetrahydro-2H-pyran-3-yl)-(4S,7R)-[4,7-ethenylene-spiro[2.4]heptane]-5,6-dicarboxamide]"
